Data as given in patent US12623942B2, “Method for extracting salts and temperature- regenerated extracting composition” (ADIONICS, priority 2016, dated 2026).

Legend:
[1] = Complexing constant Log K in methanol at 25° C.; assay type: binding
Procedure: K is the complexing constant of a CEM and a […] cation in methanol, at 25° C., which is measured according to the standard method of isothermal calorimetric titration.

[2] = Extraction isotherms of CaCl2 at room temperature and 80° C.; conditions: 0.1M CEM2 + 1M ASM9 in 12ClPh, Org./Water = 1
Procedure: Concerning the extraction or back extraction assays at a higher temperature, in particular at 60° C. or at 80° C., a magnetic stirring (at 500 revolutions per minute), for 2 hours, is carried out with an indirect thermostatically-controlled heating in a metal mold on a hotplate.
This series of examples aims to establish two extraction isotherms of CaCl2 at 20° C. and at 80° C. for an extracting composition including 0.1 Mol/L of CEM2, combined with 1 Mol/L of ASM9; the whole dissolved in 1,2-dichlorobenzene.
After carrying out the 7 specific extractions (duplicated) of salts, the amounts of extracted cations in relative molar percentage before and after extraction at room temperature and at water/extracting formulation iso-volume are indicated in table IV: […]
The same series of extractions was then carried out at 80° C. to give table V as follows: […]

[3] = Selective extraction from a binary mixture NaCl/CaCl2; conditions: for % E Ca^++ / % E Na^+: RT, molar %
Excerpt: A brine containing an equimolar mixture of salts, 0.05 mol/L of NaCl and CaCl2 each, which was made as described above, was contacted with two extracting compositions, one of which according to the invention.
Each extracting composition comprises 0.1 mol/L of CEM
[drawing 53] and 2.4 mol/L of ASM9 in 1,2-dichlorobenzene.
A brine containing a mixture of NaCl and CaCl2 is made as described above to obtain the following initial saline concentrations in a mixture: 0.2 Mol/L of NaCl and 0.03 Mol/L of CaCl2. The extracting resin, is composed of 0.1 Mol/L of CEM2, 3.52 Mol/L of ASM2 and a complement of liquid ASM1, which is also used as a fluidizing agent.

[4] = 0.1 Mol/L CEM2 + 3.52 Mol/L ASM2 + complement of liquid ASM1, brine 0.2 Mol/L NaCl and 0.03 Mol/L CaCl2
[5] = 0.1 mol/L CEM + 2.4 mol/L ASM9 in 1,2-dichlorobenzene, brine 0.05 mol/L NaCl and CaCl2 each

## CCN(CC)C(=O)COc1c2cc(C(C)(C)C)cc1Cc1cc(C(C)(C)C)cc(c1OCC(=O)N(CC)CC)Cc1cc(C(C)(C)C)cc(c1OCC(=O)N(CC)CC)Cc1cc(C(C)(C)C)cc(c1OCC(=O)N(CC)CC)Cc1cc(C(C)(C)C)cc(c1OCC(=O)N(CC)CC)Cc1cc(C(C)(C)C)cc(c1OCC(=O)N(CC)CC)C2 [CEM2, 4-tert-butyl-Calix[6]arene hexakis(N,N-diethylacetamide)]
[1]
  Log K(Cs^+, MeOH, 25° C.): 2.8
  Log K(K^+, MeOH, 25° C.): 3.3
  Log K(Li^+, MeOH, 25° C.): 2.6
  Log K(Na^+, MeOH, 25° C.): 2.8
  Log K(Rb^+, MeOH, 25° C.): 2.6
[2]; 0.01M
  Extraction rate at 80° C., CaCl2: 11%
  Extraction rate at room temperature (RT), CaCl2: 39%
[2]; 0.02M
  Extraction rate at 80° C., CaCl2: 16%
  Extraction rate at room temperature (RT), CaCl2: 42%
[2]; 0.03M
  Extraction rate at 80° C., CaCl2: 18%
  Extraction rate at room temperature (RT), CaCl2: 41%
[2]; 0.04M
  Extraction rate at 80° C., CaCl2: 17%
  Extraction rate at room temperature (RT), CaCl2: 40%
[2]; 0.1M
  Extraction rate at 80° C., CaCl2: 18%
  Extraction rate at room temperature (RT), CaCl2: 34%
[2]; 0.2M
  Extraction rate at 80° C., CaCl2: 16%
  Extraction rate at room temperature (RT), CaCl2: 27%
[2]; 0.4M
  Extraction rate at 80° C., CaCl2: 10%
  Extraction rate at room temperature (RT), CaCl2: 16%
[3]; [4]
  % E Ca^++: 88.0%
  % E Na^+: 5.0%
[3]; [5]
  % E Ca^++: 56.0%
  % E Na^+: 4.0%
[3]; 0.2 Mol/L NaCl and 0.03 Mol/L CaCl2 (example 7)
  Ratio of the Ca/Na extraction rates: 17.6
[3]; mixture with an iso-concentration of cations (example 6)
  Calcium to sodium extraction rate: 14 times
